{"source": "paper PMC12647017", "about": "“Discovery and optimization of a synthetic small protein domain targeting antibodies” (Frontiers in Bioengineering and Biotechnology, 2025)", "tested_on": "hIgG", "assay": "ELISA of soluble fractions of native and mutated WW domains against hIgG", "type": "binding", "conditions": "human IgG, soluble fraction, E6 detected with anti-HA-HRP, E6_M2 and Rosetta extract with anti-His-HRP, ABTS", "procedure": "The soluble fraction of 100 mL cultures (100 μL) was used for ELISA against hIgG, as described in ([Dias et al., 2025]). Briefly, the target hIgG was immobilized (1 μg/well) in 0.1 M Sodium Bicarbonate pH 8.6 in Immuno Maxisorp ELISA plates (Thermo Fisher), overnight at 4 °C. In the next day, the unbound hIgG was removed, and the wells washed with PBS1x. To the wells was added the blocking solution – 5% (v/v) Soya Milk in PBS 1x and incubated for 1 h at room temperature. The wells were washed and incubated with 100 µL of soluble fraction (∼0.065 mg/mL total protein) at room temperature for 2 h.\nThe unbound WW domains were removed, and the wells were washed using 4 times PBS1x-0.05% Tween 20 and 1 time with PBS1x. For detection was used 1:1,000 anti-His-HRP conjugated antibody (MA1-21315-HRP, Invitrogen) in 1% (v/v) Soya Milk in PBS1x and incubated for 1 h at RT, after that the wells were washed with 5x PBS1x. The detection occurred with ABTS (2,2′-azino-bis(3-ethylbenzothiazoline-6-sulfonic acid) ready solution (11684302001, Roche), which was incubated in the dark for 1 h at 37 °C. Finally, the results were analysed in a microplate reader (Tecan) with appropriate filter at Abs405nm.\nFigure S6 – Production and signal characterization of mutated versions. A – Tris-Tricine gels after cell lysis of the WW prototype sequence (WWp, band at ~8KDa), mutated WWp5_4 scaffold (WWp5_4_M2, band at ~8 kDa) and mutated E6 (E6_M2, band at ~ 12kDa). Samples were normalized 90µg total protein/lane. M - Precision Plus Protein™ Dual Xtra Prestained, Biorad; SF – soluble fraction; ISF – insoluble fraction. B1, B2, and B3 indicate production batchs in 1L culture, except for WWp B1 – 100 mL, WWp_5_4 B2 – 900 mL. Stained with Simplyblue. […] The detection of the clones was made with anti-His conjugated antibody with HRP and detected with ABTS as substrate.\nFigure S7 – Comparison between ELISA signal of E6 versus E6_M2. […] The expression levels were detected by direct coating of the microplate well with the soluble fraction of the extract. […] All were detected with ABTS as substrate.", "data": [{"sequence": "SMGLPPGWDEYKT RRFKL GKTYYYNH HILS KTSTWTDPRMSS [Clone E6]", "values": [{"measurement": "binding signal relative to negative control (E. coli Rosetta extract)", "result": 1.5, "unit": "times"}]}]}
